Assays:
[1] = target: T1, recombinant human cathepsin E (Homo sapiens, UniProt P14091); experiment: Cathepsin E fluorescent substrate kinetic assay; format: biochemical; settings: pH 4.5
T1 construct: purchased R&D Systems
T1 sequence (P14091 54-396): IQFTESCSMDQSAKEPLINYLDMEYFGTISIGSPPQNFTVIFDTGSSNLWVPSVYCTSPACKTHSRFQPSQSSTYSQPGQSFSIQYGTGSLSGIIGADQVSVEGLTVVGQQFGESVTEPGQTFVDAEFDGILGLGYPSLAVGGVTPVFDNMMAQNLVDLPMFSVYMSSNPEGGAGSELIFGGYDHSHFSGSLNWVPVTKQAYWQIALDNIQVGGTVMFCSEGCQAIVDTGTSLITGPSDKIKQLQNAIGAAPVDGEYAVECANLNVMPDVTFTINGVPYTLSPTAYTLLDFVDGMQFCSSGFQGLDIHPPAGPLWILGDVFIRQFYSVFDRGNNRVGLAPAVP
Excerpt: (§1) Cathepsin D and Cathepsin E Fluorescent Substrate Kinetic Assays
(§2) The MR121 fluorescence assays described below are based on the fact that MR121 forms a non-fluorescent ground state complex with tryptophan. In solution this formation occurs at millimolar concentrations of tryptophan. The mechanism can be used to design a generic biochemical assay for proteases. […] In absence of protease activity, the substrates remain intact and the MR121 fluorescence is reduced by the high local Trp-concentration. If the substrates are cleaved by the enzymes the MR121 fluorescence is recovered.
(§3) The fluorescent substrate cathepsin D and cathepsin E kinetic assays were performed at room temperature in 384-well microtiter plates (black with clear flat bottom, non binding surface plates from Corning) in a final volume of 51 μl. The test compounds were serially diluted in DMSO (15 concentrations, 1/3 dilution steps) and 1 μl of diluted compounds were mixed for 10 min with 40 μl of cathepsin D (from human liver, Calbiochem) diluted in assay buffer (100 mM sodium acetate, 0.05% BSA, pH 5.5; final concentration: 200 nM) or with 40 μl of recombinant human cathepsin E (R&D Systems) diluted in assay buffer (100 mM sodium acetate, 0.05% BSA, pH 4.5; final concentration: 0.01 nM). […] The slope in the linear range of the kinetic was calculated and the IC50 of the test compounds were determined using a four parameter equation for curve fitting.

[2] = target: T2, cathepsin D (from human liver) (Homo sapiens, UniProt P07339); experiment: Cathepsin D fluorescent substrate kinetic assay; format: biochemical; settings: pH 5.5
T2 construct: cathepsin D (from human liver, Calbiochem) diluted in assay buffer; purchased Calbiochem; host or cells: human liver
Excerpt: as §1, §2, §3

BACE1 = target: T3, BACE1 (Homo sapiens, UniProt P56817); experiment: Cellular Aβ-lowering assay (Abeta 40 AlphaLISA); format: cell-based; settings: HEK293 APP cells, 18-20 hrs incubation, Aβ 40 in culture supernatant; read-out: BACE1 cell act. Aβ40 IC50
T3 construct: endogenous in cells; host or cells: HEK293 APP cells
Protocol: Cellular Aβ-Lowering Assay:
The Abeta 40 AlphaLISA Assay can be used. The HEK293 APP cells were seeded in 96 well Microtiter plates in cell culture medium (Iscove's, plus 10% (vv) fetal bovine serum, penicillinstreptomycin) to about 80% confluency and the compounds were added at a 3× concentration in 13 volume of culture medium (final DMSO concentration was kept at 1% vv). After 18-20 hrs incubation at 37° C. and 5% CO2 in a humidified incubator, the culture supernatants were harvested for the determination of Aβ 40 concentrations using Perkin-Elmer Human Amyloid beta 1-40 (high specificity) Kit (Cat# AL275C).
Levels of Aβ 40 in the culture supernatants were calculated as percentage of maximum signal (cells treated with 1% DMSO without inhibitor). The IC50 values were calculated using the Excel XLfit software.

[3] = Detection of glutathione conjugates (GSH); format: in vitro ADME, human; design: key: NF = in vitro no adduct formation relative to control; settings: in vitro, relative to control
Excerpt: Detection of Glutathione Conjugates (GSH) The assay conditions for the detection of glutathione conjugates follow the procedure described by C. M. Dieckhaus et al. in Chem. Res. Toxicol. 2005, 18, 630-63.

T3 sequence (P56817 46-501): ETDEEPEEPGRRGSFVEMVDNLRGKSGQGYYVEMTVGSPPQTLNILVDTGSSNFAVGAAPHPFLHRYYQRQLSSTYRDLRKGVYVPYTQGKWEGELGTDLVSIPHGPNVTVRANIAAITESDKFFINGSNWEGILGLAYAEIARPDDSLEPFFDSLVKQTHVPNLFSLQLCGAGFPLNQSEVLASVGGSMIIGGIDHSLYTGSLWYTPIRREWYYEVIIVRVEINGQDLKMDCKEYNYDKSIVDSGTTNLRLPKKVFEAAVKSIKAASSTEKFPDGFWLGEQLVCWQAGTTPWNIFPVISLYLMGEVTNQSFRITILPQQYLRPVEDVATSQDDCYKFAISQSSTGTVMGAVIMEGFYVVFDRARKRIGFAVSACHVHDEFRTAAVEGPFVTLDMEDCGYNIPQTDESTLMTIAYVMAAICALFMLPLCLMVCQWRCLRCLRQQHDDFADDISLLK
T2 sequence (P07339 65-412): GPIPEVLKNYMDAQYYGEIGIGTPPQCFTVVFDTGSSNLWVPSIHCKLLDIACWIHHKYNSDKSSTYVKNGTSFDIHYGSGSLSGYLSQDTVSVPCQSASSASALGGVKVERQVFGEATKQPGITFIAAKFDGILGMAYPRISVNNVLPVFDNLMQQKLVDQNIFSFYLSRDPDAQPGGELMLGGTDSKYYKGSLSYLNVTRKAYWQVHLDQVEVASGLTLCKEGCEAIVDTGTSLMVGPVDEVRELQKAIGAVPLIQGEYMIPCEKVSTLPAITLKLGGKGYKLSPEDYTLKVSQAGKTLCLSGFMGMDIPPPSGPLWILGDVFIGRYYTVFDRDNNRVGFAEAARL

Row | SMILES | IC50 [1] [µM] | IC50 [2] [µM] | IC50 (BACE1) [µM] | GSH human (glutathione adduct formation) [3]
1 | C[C@@]1(c2cc(NC(=O)c3ccc(Cl)cn3)ccc2F)C[C@@H](C(F)(F)F)OC(N)=N1 [Example 2, N-(3-((4S,6S)-2-amino-4-methyl-6-(trifluoromethyl)-5,6-dihydro-4H-1,3-oxazin-4-yl)-4-fluorophenyl)-5-chloropicolinamide] | > 200 | > 200 | 0.005 | NF
2 | C[C@@]1(c2cc(NC(=O)c3ccc(OCF)cn3)ccc2F)C[C@@H](C(F)(F)F)OC(N)=N1 [Example 11, N-(3-((4S,6S)-2-Amino-4-methyl-6-(trifluoromethyl)-5,6-dihydro-4H-1,3-oxazin-4-yl)-4-fluorophenyl)-5-(fluoromethoxy)picolinamide] | > 200 | > 200 | 0.004 | NF
3 | CC#CCOc1cnc(C(=O)Nc2ccc(F)c([C@]3(C)C[C@@H](C(F)(F)F)OC(N)=N3)c2)cn1 [Example 22, N-(3-((4S,6S)-2-Amino-4-methyl-6-(trifluoromethyl)-5,6-dihydro-4H-1,3-oxazin-4-yl)-4-fluorophenyl)-5-(but-2-ynyloxy)pyrazine-2-carboxamide] | > 200 | 179 | 0.0002 | NF
4 | NC1=N[C@](CF)(c2cc(NC(=O)c3ccc(OCF)cn3)ccc2F)C[C@@H](C(F)(F)F)O1 [Example 35, N-(3-((4S,6S)-2-Amino-4-(fluoromethyl)-6-(trifluoromethyl)-5,6-dihydro-4H-1,3-oxazin-4-yl)-4-fluorophenyl)-5-(fluoromethoxy)picolinamide] | > 200 | > 200 | 0.019 | NF
